Data from US20120196887A1, “METHODS AND COMPOSITIONS FOR IMPROVED RIFAMYCIN THERAPIES” (priority 2011, published 2012).
In brackets after ≈: the same amount, converted by molar mass. Several values for one entry are separate records, joined by “and”; a condition that tells them apart may be missing. Identical values can stand only once. Like-named read-outs stand apart in the source and are kept apart here.

Experiments:
[1] = tested on: Enterotoxigenic Escherichia coli (ETEC) strain H10407; test: Growth of ETEC strain H10407 with rifaximin in the presence and absence of bile acids (OD600 / cell density); assay type: cell-based
Description: Enterotoxigenic Escherichia coli (ETEC) strain H10407 was used as a model bacteria in all the susceptibility experiments.
Equimolar concentrations (0.67 mM) of each of these bile acids were pooled (4 mM total bile acids) for the experiments. In order to determine the Total Human Bile Concentration, a sample of human bile taken after cholecystectomy was kindly provided by Dr. David Graham (Department of Medicine, Veterans Affairs Medical Center and the Division of Molecular Virology, Baylor College of Medicine, Houston, Tex., and Director of Study Design and Clinical Research Core, Texas Medical Center Digestive Disease. Center). The total bile acids concentration was determined using the Diazyme Total Bile Acids assay (Diazyme Laboratories, CA) following the protocol provided by the manufacturer.
In each experiment, an overnight culture of E. coli H10407 was added to the LB media to OD600 of 0.04 (approximately 4×10^7 cells/mL) and incubated for 4-6 hours at 37° C. in a shaker at 200 rpm. Optical density measurements (OD600) were determined every 30 minutes. The experiment was replicated four times and average OD used for the analysis. […]

[2] = tested on: Enterotoxigenic Escherichia coli (ETEC) strain H10407; test: as above; assay type: cell-based; remark: listed apart in the source
[3] = tested on: Salmonella enterica (ATCC #14028); test: Minimal inhibitory concentration (MIC), Salmonella enterica; assay type: cell-based; conditions: ATCC14028
Clostridium difficile = conditions: cited from earlier work
E. coli H10407 = test: Total protein content of bacteria treated with rifaximin and bile acids (Bradford assay); assay type: cell-based, Escherichia coli; conditions: 16 μg/mL rifaximin + bile acids vs rifaximin without bile acids; 4 hours incubation
Description: Aliquots (1 mL) of the culture in each tube were taken every hour for total protein determination. In order to lyse the cells and release the protein, 300 μL of permeabilization solution (2.4 mg/mL hexadecyl trimethylammonium bromide, 1.2 mg/mL sodium deoxycholate, 600 mM dibasic sodium phosphate, 60 mM potassium chloride, 6 mM magnesium sulfate, and 16 μL/mL beta-mercaptoethanol) was added. The tubes were incubated for one hour at room temperature and then centrifuged at 15000×g for 20 minutes. The protein concentration was determined in triplicate using the Bradford assay (Bradford, M. M., A rapid and sensitive method for the quantitation of microgram quantities of protein utilizing the principle of protein-dye binding. Anal Biochem. 72:248-54, 1976) using bovine serum albumin (BSA) as the standard. Each experiment was repeated three times with the average and standard deviation reported.

[4] = tested on: Enteroaggregative E. coli; test: Growth (OD600) and total protein of Enteroaggregative E. coli with rifaximin and bile acids; assay type: cell-based; conditions: 16 μg/mL rifaximin + 4 mM total bile acids
Description: A second culture of Enteroaggregative E. coli bacteria in LB media to which was added 4 mM of bile acids (comprising an equimolar mixture of each of the bile acids: cholic, deoxycholic, chenodeoxycholic, glycocholic, lithocholic, and taurocholic acids at pH 7.4).

[5] = tested on: Salmonella enterica (ATCC #14028); test: Growth (OD600) and total protein of Salmonella enterica with rifaximin and bile acids; assay type: cell-based; conditions: 32 μg/mL rifaximin + 4 mM total bile acids
Description: A second culture of Salmonella enterica bacteria in LB media to which was added 4 mM of bile acids (comprising an equimolar mixture of each of the bile acids: cholic, deoxycholic, chenodeoxycholic, glycocholic, lithocholic, and taurocholic acids at pH 7.4).

[6] = tested on: Enterotoxigenic Escherichia coli (ETEC) strain H10407; conditions: cited from earlier work
[7] = tested on: Shigella flexneri (serotype 2B); test: Growth (OD600) and total protein of Shigella flexneri with rifaximin and bile acids; assay type: cell-based; conditions: 32 μg/mL rifaximin + 4 mM total bile acids
Description: A second culture of Shigella flexneri (serotype 2B) bacteria in LB media to which was added 4 mM of bile acids (comprising an equimolar mixture of each of the bile acids: cholic, deoxycholic, chenodeoxycholic, glycocholic, lithocholic, and taurocholic acids at pH 7.4).

[8] = tested on: Enteroaggregative E. coli; test: Minimal inhibitory concentration (MIC), Enteroaggregative E. coli; assay type: cell-based; conditions: Escherichia coli; Enteroaggregative strain of E. coli used
coliform flora = conditions: cited from earlier work
[9] = tested on: Shigella flexneri (serotype 2B); test: Minimal inhibitory concentration (MIC), Shigella flexneri; assay type: cell-based
[10] = tested on: beta-galactosidase expressed by E. coli H10407; test: Beta-galactosidase assay (IPTG-induced expression, Miller Units); assay type: cell-based, Escherichia coli; conditions: rifaximin added to the culture medium (8, 16, 32 μg/mL), no bile acids
Description: Beta-Galactosidase Assay: Beta-galactosidase is an essential enzyme required by E. coli to metabolize lactose during conditions when available glucose levels are low, but lactose levels are high. When expression of beta-galactosidase is inhibited in a media containing limiting amounts of glucose but high amounts of lactose, once the glucose in the media is exhausted bacterial death occurs. […] To, 1.5 mL microfuge tubes, 50 μL of the induced culture was added to 200 μL of permeabilization solution (0.8 mg/mL hexadecyl trimethylammonium bromide (CTAB), 0.4 mg/mL sodium deoxycholate, 200 mM dibasic sodium phosphate (Na2HPO4), 20 mM potassium chloride (KCl), 2 mM magnesium sulfate (MgSO4), and 5.4 μL/mL beta-mercaptoethanol. After 30 minutes incubation at 30° C., 600 μL of substrate solution (60 mM Na2HPO4, 40 mM NaH2PO4, 10 mM KCl, 20 μg/mL CTAB, 1 mg/mL O-nitrophenyl-β-D-galactoside (ONPG), and 2.7 μL/mL β-mercaptoethanol) was added and the time of addition was recorded. The incubation was allowed to continue at 30° C. for 40 minutes, after which 350 μL of 2 M sodium carbonate (Na2CO3) was added to stop the reaction. The assay, tubes were centrifuged at 15000×g for 15 minutes and absorbance measurements at 420 nm were made in triplicate using the supernatants.
The concentration of β-galactosidase in Miller Units was calculated as: […]

[11] = 4 mM bile acid + 16 μg/mL rifaximin vs 16 μg/mL rifaximin alone, 4 hours
[12] = bile acid 4 mM combined with 16 μg/mL rifaximin, after 4 hours of incubation
[13] = bile acid alone, no rifaximin, after 4 hours of incubation

## C[C@H](CCC(=O)O)[C@H]1CC[C@H]2[C@@H]3[C@H](O)C[C@@H]4C[C@H](O)CC[C@]4(C)[C@H]3CC[C@]12C [Chenodeoxycholic acid]
[1]; [11]
  PERCENT DECREASE IN CELL DENSITY ON ADDITION OF BILE ACIDS TO RIFAXIMIN: 89.2 ± 0.49%
[1]; 4 mM bile acid + 16 μg/mL rifaximin vs 16 μg/mL rifaximin alone, 4 hours, listed as chenodeoxycholic acid
  PERCENT DECREASE IN CELL DENSITY ON ADDITION OF BILE ACIDS TO RIFAXIMIN: 89.2%
[1]; [12]
  Cell density, 4 mM BILE ACIDS + 16 μg/mL RIFAXIMIN: 0.53 ± 0.51 ×10^8 bacteria/milliliter of c
[2]; [13]
  Cell density, 4 mM BILE ACIDS: 7.0 ± 0.06 ×10^8 bacteria/milliliter of c

## C[C@H](CCC(=O)O)[C@H]1CC[C@H]2[C@@H]3[C@H](O)C[C@@H]4C[C@H](O)CC[C@]4(C)[C@H]3C[C@H](O)[C@]12C [Cholic acid]
[1]; [11]
  PERCENT DECREASE IN CELL DENSITY ON ADDITION OF BILE ACIDS TO RIFAXIMIN: 95.5 ± 0.80%
[1]; 4 mM bile acid + 16 μg/mL rifaximin vs 16 μg/mL rifaximin alone, 4 hours, listed as cholic acid
  PERCENT DECREASE IN CELL DENSITY ON ADDITION OF BILE ACIDS TO RIFAXIMIN: 95.5%
[1]; [12]
  Cell density, 4 mM BILE ACIDS + 16 μg/mL RIFAXIMIN: 0.22 ± 0.20 ×10^8 bacteria/milliliter of c
[2]; [13]
  Cell density, 4 mM BILE ACIDS: 11 ± 0.46 ×10^8 bacteria/milliliter of c

## C[C@H](CCC(=O)O)[C@H]1CC[C@H]2[C@@H]3CC[C@@H]4C[C@H](O)CC[C@]4(C)[C@H]3C[C@H](O)[C@]12C [Deoxycholic acid]
[1]; [11]
  PERCENT DECREASE IN CELL DENSITY ON ADDITION OF BILE ACIDS TO RIFAXIMIN: 93.8 ± 0.51%
[1]; 4 mM bile acid + 16 μg/mL rifaximin vs 16 μg/mL rifaximin alone, 4 hours, listed as deoxycholic acid
  PERCENT DECREASE IN CELL DENSITY ON ADDITION OF BILE ACIDS TO RIFAXIMIN: 93.8%
[1]; [12]
  Cell density, 4 mM BILE ACIDS + 16 μg/mL RIFAXIMIN: 0.30 ± 0.49 ×10^8 bacteria/milliliter of c
[2]; [13]
  Cell density, 4 mM BILE ACIDS: 3.9 ± 0.34 ×10^8 bacteria/milliliter of c

## C[C@H](CCC(=O)NCC(=O)O)[C@H]1CC[C@H]2[C@@H]3[C@H](O)C[C@@H]4C[C@H](O)CC[C@]4(C)[C@H]3C[C@H](O)[C@]12C [Glycocholic acid]
[1]; [11]
  PERCENT DECREASE IN CELL DENSITY ON ADDITION OF BILE ACIDS TO RIFAXIMIN: 80.8 ± 0.40%
[1]; 4 mM bile acid + 16 μg/mL rifaximin vs 16 μg/mL rifaximin alone, 4 hours, listed as glycocholic acid
  PERCENT DECREASE IN CELL DENSITY ON ADDITION OF BILE ACIDS TO RIFAXIMIN: 80.8%
[1]; [12]
  Cell density, 4 mM BILE ACIDS + 16 μg/mL RIFAXIMIN: 0.94 ± 0.60 ×10^8 bacteria/milliliter of c
[2]; [13]
  Cell density, 4 mM BILE ACIDS: 14 ± 0.32 ×10^8 bacteria/milliliter of c

## C[C@H](CCC(=O)O)[C@H]1CC[C@H]2[C@@H]3CC[C@@H]4C[C@H](O)CC[C@]4(C)[C@H]3CC[C@]12C [Lithocholic acid]
[1]; [11]
  PERCENT DECREASE IN CELL DENSITY ON ADDITION OF BILE ACIDS TO RIFAXIMIN: 43.9 ± 0.73%
[1]; 4 mM bile acid + 16 μg/mL rifaximin vs 16 μg/mL rifaximin alone, 4 hours, listed as lithocholic acid
  PERCENT DECREASE IN CELL DENSITY ON ADDITION OF BILE ACIDS TO RIFAXIMIN: 43.9%
[1]; [12]
  Cell density, 4 mM BILE ACIDS + 16 μg/mL RIFAXIMIN: 2.8 ± 0.27 ×10^8 bacteria/milliliter of c
[2]; [13]
  Cell density, 4 mM BILE ACIDS: 6.6 ± 0.25 ×10^8 bacteria/milliliter of c

## C[C@H](CCC(=O)NCCS(=O)(=O)O)[C@H]1CC[C@H]2[C@@H]3[C@H](O)C[C@@H]4C[C@H](O)CC[C@]4(C)[C@H]3C[C@H](O)[C@]12C [Taurocholic acid]
[1]
  Cell density, 4 mM BILE ACIDS + 16 μg/mL RIFAXIMIN: 1.1 ± 0.23
  PERCENT DECREASE IN CELL DENSITY ON ADDITION OF BILE ACIDS TO RIFAXIMIN: 77.6% and 77.6 ± 0.77%
[2]
  Cell density, 4 mM BILE ACIDS: 14 ± 0.51

## CO[C@H]1/C=C/O[C@@]2(C)Oc3c(C)c(O)c4c(O)c(c5c(nc6cc(C)ccn65)c4c3C2=O)NC(=O)/C(C)=C\C=C\[C@H](C)[C@H](O)[C@@H](C)[C@@H](O)[C@@H](C)[C@H](OC(C)=O)[C@@H]1C [rifaximin, Rifaximin]
[3]
  MIC: 64 µg/mL (≈ 81.4 µM)
Clostridium difficile
  MIC: 0.025 µg/mL (≈ 0.0318 µM)
E. coli H10407
  percent decrease in total bacterial protein expression when bile acids added: 59%
[1]; 16 μg/mL rifaximin, absence of bile acids
  inhibition of bacterial growth by rifaximin alone: statistically significant (p=0.026, n=4) inhibition of bacterial growth
[1]; after 4 hours
  increase of anti-ETEC activity on addition of bile acids / human bile to rifaximin: greater than 70%
[1]; rifaximin alone, no bile acids, after 4 hours of incubation, control of the bile acid named in the row
  Cell density, 16 μg/mL RIFAXIMIN: 6.6 ± 0.50 ×10^8 bacteria/milliliter of c and 4.9 ± 1.0 ×10^8 bacteria/milliliter of c
[4]
  effect of adding bile acids to rifaximin on growth and protein synthesis: increases its ability to inhibit the growth and protein synthesis
[5]
  effect of adding bile acids to rifaximin on growth and protein synthesis: increases its ability to inhibit the growth and protein synthesis
[6]
  in vitro minimal inhibitory concentration (MIC): 32 to 128 µg/mL
[7]
  effect of adding bile acids to rifaximin on growth and protein synthesis: increases its ability to inhibit the growth and protein synthesis
[8]
  MIC: 32 µg/mL (≈ 40.7 µM)
Coliform flora
  average MICs of most coliform flora: about 32 μg/mL
[9]
  MIC: 64 µg/mL (≈ 81.4 µM)
[10]
  amount of beta-galactosidase produced vs control: decreased in a dose-dependent fashion below the control values
